Assay results published in patent US5593970A, “Heterocyclic anthracycline analogs” (priority 1994, dated 1997).
Where a name gives a salt, the structure may show the parent alone. Read-outs that look alike come from different tables or passages of the source.

Key:
Assay in all cases: Microculture tetrazolium assay
Type in all cases: cell-based
[1] = tested on: T47D; conditions: Homo sapiens, read-out: IC50
[2] = tested on: HT29; conditions: Homo sapiens, HT-29, HT29
[3] = tested on: LOX; conditions: read-out: IC50
[4] = tested on: SKVLB; conditions: for VLB/OV3: IC50 ratio SKVLB/SKOV3; for IC50: SKVLB, read-out: IC50
[5] = tested on: SKOV3; conditions: Homo sapiens, SK-OV-3, SKOV3; read-out: IC50

Structure (SMILES) | IC50 [1] [µM] | IC50 ([2]; read-out: IC50) [µM] | IC50 [3] [µM] | IC50 [4] [µM] | IC50 [5] [µM] | VLB/OV3 [4] | IC50 [2] [µM]
CCOC(=O)C1CC2=C(CO1)C(=O)c1c(cc3ccccc3c1OC(C)=O)C2=O (centres unmarked) [BCH-656, Ethyl[11-acetoxy-5,12-dioxo-3,4,5,12-tetrahydro-anthraceno[2,3-c]pyran-3-yl]formate] | 65.6 | 86.6 | 68.9 | 82.9 | 76.7 | 1.08 | 
CC(=O)O[C@@H]1[C@H](C)O[C@@H](O[C@H]2O[C@H](C(C)=O)CC3=C2C(=O)c2cc4ccccc4c(O)c2C3=O)C[C@@H]1OC(C)=O [BCH-1165, (1'S,1R,3S)-methyl-(6-hydroxy-1-(2',3',4',6'-tetradeoxy-3',4'-diacetyl-L-lyxohexopyranose)-5,12-dioxo-3,4,5,12-tetrahydroanthraceno-[2,3-c]pyran-3-yl) ketone] | 31.5 | 10 | 23.6 | 42.1 | 30.5 | 1.38 | 
CC1(C2Cc3c(O)c4c(c(O)c3CO2)C(=O)c2ccccc2C4=O)OCCO1 (centres unmarked) [BCH-1114] | 100 | 68.9 | 100 | 100 | 64.6 |  | 
CO[C@H]1S[C@H](CO)CC2=C1C(=O)c1cc3ccccc3c(O)c1C2=O (relative stereo) [BCH-725] | 4.57 | 2.49 | 1.93 | 3.99 | 3.46 | 1.15 | 
C[C@@H]1O[C@@H](O[C@@H]2O[C@@H](C#N)CC3=C2C(=O)c2cc4ccccc4c(O)c2C3=O)C[C@H](NC(=O)C(F)(F)F)[C@@H]1O [BCH-2008, (1'S,1S,3R)-3-(6-hydroxy-1-(2',3',6'-trideoxy-3'-trifluoroacetamido-4'-hydroxy-L-lyxohexopyranose)-5,12-dioxo-3,4,5,12-tetrahydroanthraceno-[2,3-c]pyran-3-yl)nitrile] | 0.387 | 0.0625 | 0.154 | 2.18 | 0.332 | 6.57 | 
CC(=O)O[C@@H]1[C@H](C)O[C@@H](O[C@@H]2O[C@@H](C(C)=O)CC3=C2C(=O)c2cc4ccccc4c(O)c2C3=O)C[C@@H]1OC(C)=O [BCH-1166, (1'S,1S,3R)-methyl-(6-hydroxy-1-(2',3',4',6'-tetradeoxy-3',4'-diacetyl-L-lyxohexopyranose)-5,12-dioxo-3,4,5,12-tetrahydroanthraceno-[2,3-c]pyran-3-yl) ketone] | 31.4 | 12.5 | 30.5 | 50.8 | 24.4 | 2.08 | 
CO[C@H]1S[C@H](C(C)=O)CC2=C1C(=O)c1cc3ccccc3c(O)c1C2=O (relative stereo) [BCH-1164, Trans-3-aceto-1-methoxy-6-hydroxy-1,2,3,4,5,12-hexahydro-2-(sulfur)naphthacene-5,12-dione] | 12.2 |  | > 100 | 9.2 | 9.36 | 0.98 | 6.97
CCOC(=O)C1CC2=C(CO1)C(=O)c1cc3ccccc3c(OC(C)=O)c1C2=O (centres unmarked) [BCH-659, Ethyl(6-acetoxy-5,12-dioxo-3,4,5,12-tetrahydroanthraceno[2,3-c]pyran-3-yl)formate] | 3.83 | 2.36 | 4.82 | 2.54 | 4.53 | 0.56 | 
C=CC1CC2=C(C(=O)c3cc4ccccc4c(O)c3C2=O)C(O[C@H]2C[C@H](NC(=O)C(F)(F)F)[C@H](O)[C@H](C)O2)O1 (some centres unmarked) [BCH-1168] | 84.4 | 100 | 100 | 94.2 | 88 | 1.07 | 

The remaining compounds from weak to strong by IC50 [1], led by results:

IC50 [1] [µM] | IC50 ([2]; read-out: IC50) [µM] | IC50 [3] [µM] | IC50 [4] [µM] | IC50 [5] [µM] | Structure (SMILES) | VLB/OV3 [4] | IC50 [2] [µM]
3.89 | 0.727 | 1.49 | 1.64 | 3.15 | CC(=O)[C@H]1CC2=C(C(=O)c3cc4ccccc4c(O)c3C2=O)[C@H](O[C@H]2C[C@H](NC(=O)C(F)(F)F)[C@H](O)[C@H](C)O2)O1 [BCH-724, (1S',1S,3R)-Methyl-(6-hydroxy-1-(3'-trifluoroacyldaunosamine)-5,12-dioxo-3,4,5,12-tetrahydroanthraceno[2,3-C]pyran-3-yl) ketone] | 0.52 | 
0.954 | 0.565 | 0.736 | 4.03 | 2.06 | C[C@@H]1O[C@@H](O[C@H]2O[C@H](c3ccccc3)CC3=C2C(=O)c2cc4ccccc4c(O)c2C3=O)C[C@H](N)[C@@H]1O [BCH-2012, (1'S,1R,3S)-3-(6-hydroxy-1-(2',3',6'-trideoxy-3'-amino-4'-hydroxy-L-lyxohexopyranose)-5,12-dioxo-3,4,5,12-tetrahydroanthraceno-[2,3-c]pyran-3-yl)benzene hydrochloride] | 1.96 | 
0.871 | 2.5 | 3.24 | 6 | 3.59 | C[C@@H]1O[C@@H](O[C@@H]2OCCC3=C2C(=O)c2cc4ccccc4c(O)c2C3=O)C[C@H](NC(=O)C(F)(F)F)[C@@H]1O [BCH-1647] | 1.67 | 
0.693 | 0.586 | 0.148 | 14.1 | 0.31 | CC(=NO)[C@H]1Cc2c(O)c3c(c(O)c2[C@H](O[C@H]2C[C@H](N)[C@H](O)[C@H](C)O2)O1)C(=O)c1ccccc1C3=O [BCH-2074, (1'S, 1S,3R)-3-(Oximoethyl)-5,12-dihydroxy-1(2,3,6-trideoxy-3-amino-L-lyxohexolpyranose)-6,11-dioxo-3,4,6,11-tetrahydro-1H-anthra[2,3-C]pyran hydrochloride] | 45.48 | 
0.49 | 0.163 | 0.226 | 0.407 | 0.392 | C[C@@H]1O[C@@H](O[C@H]2O[C@H](COc3ccccc3)Cc3c(O)c4c(c(O)c32)C(=O)c2ccccc2C4=O)C[C@H](N)[C@@H]1O (mixture of isomers) [BCH-2058, (1'S,1R,3S) and (1'S,1S,3R)-5,12-dihydroxy-3-phenyloxymethyl-1-(2',3',6'-trideoxy-3'-amino-L-lyxohexopyranose)-1,2,3,4-tetrahydro-(2-oxygen)-naphthacene-6,11-dione-hydrochloride] | 1.04 | 
0.263 | 0.0773 | 0.102 | 0.472 | 0.275 | CC(C)[C@H]1Cc2c(O)c3c(c(O)c2[C@H](O[C@H]2C[C@H](N)[C@H](O)[C@H](C)O2)O1)C(=O)c1ccccc1C3=O [BCH-2049, (1'S,1S,3R)-5,12-trihydroxy-3-isopropyl-1-(2',3',6'-trideoxy-3'-amino-L-lyxohexopyranose)-1,2,3,4-tetrahydro-(2-oxygen)-naphthacene-6,11-dione-hydrochloride] | 1.72 | 
0.243 | 2.69 | 1.49 | 5.16 | 1.03 | C[C@@H]1O[C@@H](O[C@@H]2O[C@@H](COc3ccccc3)CC3=C2C(=O)c2cc4ccccc4c(O)c2C3=O)C[C@H](NC(=O)C(F)(F)F)[C@@H]1O [BCH-2057, (1'S,1S,3R)-5,12-dioxo-6-hydroxy-3-phenyloxymethyl-1-(2',3',6'-trideoxy-3'-trifluoroacetamido-L-lyxohexopyranose)-3,4,5,12-tetrahydroanthraceno-[2,3-c]pyran] | 5.01 | 
